# In PubChem BioAssay AID330 (DTP/NCI, 2004):
# Values joined by “and” are separate entries in the source; they are usually repeats but may differ in a detail not shown here. Equal entries are not always repeated. Toxic doses and inconclusive results are not listed.
# System: P388 leukemia ip, CD2F1 mice, survival T/C
# Test: NCI In Vivo Anticancer Drug Screen. Data for tumor model P388 Leukemia (intraperitoneal) in CD2F1 (CDF1) mice
# Details: endpoint: median survival time, higher = longer survival
# In short: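 Mice carrying the transplanted tumor received test compound or vehicle. Survival was recorded in each group, and the value is the treated-group measurement divided by that of the vehicle-treated control group.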
# [1] = dose: 50.0 mg/kg/injection, schedule: Q01DX005 (ip), vehicle: Klucel (hydroxypropylcellulose) (HPC)
# [2] = dose: 100.0 mg/kg/injection, schedule: Q01DX005 (ip), vehicle: Klucel (hydroxypropylcellulose) (HPC)
# [3] = dose: 50.0 mg/kg/injection, schedule: Q01DX009 (ip), vehicle: Klucel (hydroxypropylcellulose) (HPC)
# [4] = dose: 50.0 mg/kg/injection, schedule: Q01DX005 (ip), vehicle: saline with Tween-80
# [5] = dose: 100.0 mg/kg/injection, schedule: Q01DX005 (ip), vehicle: saline with Tween-80
# [6] = dose: 200.0 mg/kg/injection, schedule: Q01DX005 (ip), vehicle: saline with Tween-80
# [7] = dose: 50.0 mg/kg/injection, schedule: Q01DX009 (ip), vehicle: saline
# [8] = dose: 100.0 mg/kg/injection, schedule: Q01DX009 (ip), vehicle: saline
# [9] = dose: 60.0 mg/kg/injection, schedule: Q01DX005 (ip), vehicle: Klucel (hydroxypropylcellulose) (HPC)
# [10] = dose: 120.0 mg/kg/injection, schedule: Q01DX005 (ip), vehicle: Klucel (hydroxypropylcellulose) (HPC)
# [11] = dose: 240.0 mg/kg/injection, schedule: Q01DX005 (ip), vehicle: Klucel (hydroxypropylcellulose) (HPC)
# [12] = dose: 60.0 mg/kg/injection, schedule: Q01DX005 (ip), vehicle: saline with Tween-80
# [13] = dose: 120.0 mg/kg/injection, schedule: Q01DX005 (ip), vehicle: saline with Tween-80
# [14] = dose: 240.0 mg/kg/injection, schedule: Q01DX005 (ip), vehicle: saline with Tween-80
# [15] = dose: 100.0 mg/kg/injection, schedule: Q01DX009 (ip), vehicle: Klucel (hydroxypropylcellulose) (HPC)
# [16] = dose: 200.0 mg/kg/injection, schedule: Q01DX009 (ip), vehicle: Klucel (hydroxypropylcellulose) (HPC)
smiles,measurement,setting,value
Cc1ccc2nc(C[n+]3cccc4ccccc43)ccc2c1,T/C,"dose: 0.38 mg/kg/injection, schedule: Q01DX005 (ip), vehicle: saline",107 % of control
same,T/C,"dose: 0.75 mg/kg/injection, schedule: Q01DX005 (ip), vehicle: saline with Tween-80",113 % of control
same,T/C,"dose: 0.75 mg/kg/injection, schedule: Q01DX005 (ip), vehicle: saline",115 % of control and 122 % of control
same,T/C,"dose: 1.5 mg/kg/injection, schedule: Q01DX005 (ip), vehicle: saline with Tween-80",115 % of control
same,T/C,"dose: 1.5 mg/kg/injection, schedule: Q01DX005 (ip), vehicle: saline",116 % of control
same,T/C,"dose: 3.0 mg/kg/injection, schedule: Q01DX005 (ip), vehicle: saline with Tween-80",100 % of control
same,T/C,"dose: 3.0 mg/kg/injection, schedule: Q01DX005 (ip), vehicle: saline",114 % of control and 116 % of control
same,T/C,"dose: 3.12 mg/kg/injection, schedule: Q01DX005 (ip), vehicle: saline with Tween-80",117 % of control
COc1ccc(C[n+]2ccccc2C#N)cc1OC,T/C,[1],103 % of control
same,T/C,[2],107 % of control
CCCCCN(CCCCC)c1ccc(/C=C/c2ccnc3ccccc23)cc1,T/C,[3],98 % of control
same,T/C,"dose: 400.0 mg/kg/injection, schedule: Q01DX009 (ip), vehicle: Klucel (hydroxypropylcellulose) (HPC)",104 % of control
O=S(=O)(O)CC(O)CN1CCN(CCO)CC1 (stereo unspecified),T/C,"dose: 60.0 mg/kg/injection, schedule: Q01DX005 (ip), vehicle: saline",100 % of control
same,T/C,"dose: 120.0 mg/kg/injection, schedule: Q01DX005 (ip), vehicle: saline",100 % of control
same,T/C,"dose: 240.0 mg/kg/injection, schedule: Q01DX005 (ip), vehicle: saline",98 % of control
Oc1c2c(c3cccc4cccc1c43)=Nc1ccccc1S2,T/C,[4],95 % of control
same,T/C,[5],94 % of control
same,T/C,[6],90 % of control
CC(CCC(=O)O)(c1cc(Br)c(O)c(Br)c1)c1cc(Br)c(O)c(Br)c1,T/C,"dose: 100.0 mg/kg/injection, schedule: Q04DX003 (ip), vehicle: other",100 % of control
same,T/C,"dose: 200.0 mg/kg/injection, schedule: Q04DX003 (ip), vehicle: other",100 % of control
same,T/C,"dose: 400.0 mg/kg/injection, schedule: Q04DX003 (ip), vehicle: other",100 % of control
CC1=NN(c2ccccc2)C(=O)C1N=Nc1cc(Cl)cc(S(=O)(=O)O)c1O (stereo unspecified),T/C,[7],96 % of control
same,T/C,[8],97 % of control
O=C(Nn1c(=S)[nH]c2ccccc2c1=O)c1ccc([N+](=O)[O-])cc1,T/C,"dose: 60.0 mg/kg/injection, schedule: Q01DX005 (ip), vehicle: Klucel + Tween-80",93 % of control
same,T/C,"dose: 120.0 mg/kg/injection, schedule: Q01DX005 (ip), vehicle: Klucel + Tween-80",87 % of control
Cc1cc(Cl)ccc1O/C(=C/C(=O)O)C(=O)O,T/C,[9],100 % of control and 98 % of control
same,T/C,[10],100 % of control and 95 % of control
same,T/C,[11],101 % of control and 87 % of control
N#Cc1c(C(=O)NOCCCc2ccccc2)cc(-c2ccc(F)cc2)[nH]c1=O,T/C,[12],107 % of control
same,T/C,[13],103 % of control
N#CCc1nc2ncc(Br)cc2[nH]1,T/C,"dose: 100.0 mg/kg/injection, schedule: Q01DX001 (ip), vehicle: saline with Tween-80",100 % of control
same,T/C,"dose: 200.0 mg/kg/injection, schedule: Q01DX001 (ip), vehicle: saline with Tween-80",104 % of control
same,T/C,"dose: 400.0 mg/kg/injection, schedule: Q01DX001 (ip), vehicle: saline with Tween-80",100 % of control
O=C(Nc1cc(Cl)ccc1Cl)Nc1ccc(Cl)cc1C(=O)c1ccccc1,T/C,"dose: 15.0 mg/kg/injection, schedule: Q01DX005 (ip), vehicle: saline with Tween-80",89 % of control
same,T/C,"dose: 30.0 mg/kg/injection, schedule: Q01DX005 (ip), vehicle: saline with Tween-80",90 % of control
same,T/C,[14],90 % of control
CC(C)c1cc2c(c(O)c1O)C13CCCC(C)(C)C1CC2OC3=O (stereo unspecified),T/C,"dose: 7.0 mg/kg/injection, schedule: Q01DX005 (ip), vehicle: saline with Tween-80",113 % of control
same,T/C,"dose: 14.0 mg/kg/injection, schedule: Q01DX005 (ip), vehicle: saline with Tween-80",111 % of control
same,T/C,"dose: 28.0 mg/kg/injection, schedule: Q01DX005 (ip), vehicle: saline with Tween-80",104 % of control
NC1CN2CCC1CC2 (stereo unspecified),T/C,[7],104 % of control
same,T/C,[8],107 % of control
same,T/C,"dose: 200.0 mg/kg/injection, schedule: Q01DX009 (ip), vehicle: saline",98 % of control
CC(C1SC(=S)NC1=O)C1SC(=S)NC1=O (stereo unspecified),T/C,[4],86 % of control
same,T/C,[5],87 % of control
same,T/C,[6],87 % of control
Fc1ccc2c(c1)C(Br)c1ccccc1-2 (stereo unspecified),T/C,"dose: 6.25 mg/kg/injection, schedule: Q01DX009 (ip), vehicle: saline with Tween-80",104 % of control
same,T/C,"dose: 12.5 mg/kg/injection, schedule: Q01DX009 (ip), vehicle: saline with Tween-80",100 % of control
same,T/C,"dose: 25.0 mg/kg/injection, schedule: Q01DX009 (ip), vehicle: saline with Tween-80",109 % of control
O=[n+]1c2c(n([O-])c3ccccc31)CCCCCC2,T/C,"dose: 50.0 mg/kg/injection, schedule: Q01DX009 (ip), vehicle: saline with Tween-80",108 % of control
same,T/C,"dose: 100.0 mg/kg/injection, schedule: Q01DX009 (ip), vehicle: saline with Tween-80",99 % of control
same,T/C,"dose: 200.0 mg/kg/injection, schedule: Q01DX009 (ip), vehicle: saline with Tween-80",100 % of control
CC1OC(OCC2OC(Oc3c(-c4ccc(O)c(O)c4)oc4cc(O)cc(O)c4c3=O)C(O)C(O)C2O)C(O)C(O)C1O (stereo unspecified),T/C,"dose: 6.25 mg/kg/injection, schedule: Q01DX005 (ip), vehicle: saline with Tween-80",95 % of control
same,T/C,"dose: 12.5 mg/kg/injection, schedule: Q01DX005 (ip), vehicle: saline with Tween-80",94 % of control
same,T/C,"dose: 25.0 mg/kg/injection, schedule: Q01DX005 (ip), vehicle: saline with Tween-80",94 % of control
CCc1cc(C(=O)OC)c(=O)n2c1-c1[nH]c3ccccc3c1CC2,T/C,[1],94 % of control
same,T/C,[2],95 % of control
same,T/C,"dose: 200.0 mg/kg/injection, schedule: Q01DX005 (ip), vehicle: Klucel (hydroxypropylcellulose) (HPC)",89 % of control
COc1cc2c(c(OC)c1OC)CCc1cn[nH]c1-2,T/C,"dose: 100.0 mg/kg/injection, schedule: Q01DX001 (ip), vehicle: Klucel (hydroxypropylcellulose) (HPC)",116 % of control
same,T/C,"dose: 200.0 mg/kg/injection, schedule: Q01DX001 (ip), vehicle: Klucel (hydroxypropylcellulose) (HPC)",123 % of control
same,T/C,"dose: 400.0 mg/kg/injection, schedule: Q01DX001 (ip), vehicle: Klucel (hydroxypropylcellulose) (HPC)",116 % of control
O=C(COc1ccccc1)NC(=S)Nc1nccs1,T/C,[12],96 % of control
same,T/C,[13],93 % of control
same,T/C,[14],102 % of control
COn1nnc2ccc(Cl)cc21,T/C,[3],99 % of control
same,T/C,[15],100 % of control
same,T/C,[16],100 % of control
Cc1ccc2c(c1)P(=O)(c1ccccc1C(O)(C(F)(F)F)C(F)(F)F)c1cc(C)ccc1O2,T/C,"dose: 100.0 mg/kg/injection, schedule: Q04DX002 (ip), vehicle: Klucel (hydroxypropylcellulose) (HPC)",101 % of control
same,T/C,"dose: 200.0 mg/kg/injection, schedule: Q04DX002 (ip), vehicle: Klucel (hydroxypropylcellulose) (HPC)",94 % of control
same,T/C,"dose: 400.0 mg/kg/injection, schedule: Q04DX002 (ip), vehicle: Klucel (hydroxypropylcellulose) (HPC)",90 % of control
CCC1=Nc2ccccc2C(c2ccccc2)NC1=O (stereo unspecified),T/C,[9],97 % of control
same,T/C,[10],100 % of control
same,T/C,[11],94 % of control
O=C(O)c1nn(-c2ccccc2-c2n[nH]c(=O)[nH]c2=O)c(=O)[nH]c1=O,T/C,[4],101 % of control
same,T/C,[5],90 % of control
same,T/C,[6],95 % of control
NC(c1ccccc1)c1cccs1 (stereo unspecified),T/C,[1],100 % of control
same,T/C,[2],105 % of control
Nc1nnc(Cc2nnc(N)o2)o1,T/C,[4],101 % of control
same,T/C,[5],101 % of control
same,T/C,[6],98 % of control
CNC(=O)Nc1ccncc1,T/C,"dose: 12.5 mg/kg/injection, schedule: Q01DX009 (ip), vehicle: saline",112 % of control
same,T/C,"dose: 25.0 mg/kg/injection, schedule: Q01DX009 (ip), vehicle: saline",102 % of control
same,T/C,[7],100 % of control
COC(=O)C1=[N+]([O-])OC(C(=O)OC)C1c1ccc(OC)cc1 (stereo unspecified),T/C,[4],97 % of control
same,T/C,[5],97 % of control
same,T/C,[6],98 % of control
CS1(=O)=N/C(=N\C(=O)Nc2ccccc2)c2ccccc21 (stereo unspecified),T/C,[3],100 % of control
same,T/C,[15],102 % of control
same,T/C,[16],102 % of control
COc1cc2c(cc1O)CC1c3c(cc(O)c(OC)c3-2)CCN1C (stereo unspecified),T/C,[4],98 % of control
same,T/C,[5],87 % of control
